Measured values reported in US9980943B2, “Methods of treating muscular dystrophy” (BOARD OF REGENTS OF THE NEVADA SYSTEM OF HIGHER EDUCATION, …, priority 2013, dated 2018).

What was measured:
Type in all cases: cell-based, mouse
[1] = system: β-galactosidase in CMV-LacZ C2C12 myotubes; experiment: CMV-LacZ secondary screen in C2C12 myotubes (β-Gal stabilizing assay); settings: for CMV-LACZ in Myotubes (β-galactosidase activity relative to DMSO): CMV-LacZ C2C12 myotubes, 96-well format
How it was run: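 A secondary screen identifies compounds that stabilize β-gal independently of the native promoter, using CMV-LacZ C2C12 cells. Curves span 0.5–40 μM at six levels, in duplicate.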

[2] = system: α7 integrin (LacZ reporter in α7+/LacZ myotubes); experiment: Myotube α7 integrin FDG assay (Burkin assay in myotubes, 96-well); settings: myotubes
[3] = system: α7 integrin (LacZ reporter in α7βgal+/− myoblasts); experiment: Myoblast α7+/LacZ integrin FDG assay (Burkin assay in myoblasts, 96-well); settings: α7+/LacZ myoblasts, 96-well
[4] = 5 uM, C2C12 CMV-LacZ myotubes, fold relative to DMSO
[5] = 10 uM, C2C12 CMV-LacZ myotubes, fold relative to DMSO
[6] = 20 uM, C2C12 CMV-LacZ myotubes, fold relative to DMSO
[7] = 40 uM, C2C12 CMV-LacZ myotubes, fold relative to DMSO

SMILES	CMV-LACZ in Myotubes (β-galactosidase activity relative to DMSO) ([1]; 5 uM)	CMV-LACZ in Myotubes (β-galactosidase activity relative to DMSO) ([1]; 10 uM)	CMV-LACZ in Myotubes (β-galactosidase activity relative to DMSO) ([1]; 20 uM)	CMV-LACZ in Myotubes (β-galactosidase activity relative to DMSO) ([1]; 40 uM)	Burkin Assay in Myotubes (signal relative to DMSO) ([2]; 0.5 uM)	Burkin Assay in Myotubes (signal relative to DMSO) ([2]; 1 uM)	Burkin Assay in Myotubes (signal relative to DMSO) ([2]; 5 uM)	Burkin Assay in Myotubes (signal relative to DMSO) ([2]; 10 uM)	Burkin Assay in Myotubes (signal relative to DMSO) ([2]; 20 uM)	Burkin Assay in Myotubes (signal relative to DMSO) ([2]; 40 uM)	Burkin Assay in Myoblasts, value relative to DMSO ([3]; 0.5 uM)	Burkin Assay in Myoblasts, value relative to DMSO ([3]; 1 uM)	Burkin Assay in Myoblasts, value relative to DMSO ([3]; 5 uM)	Burkin Assay in Myoblasts, value relative to DMSO ([3]; 10 uM)	Burkin Assay in Myoblasts, value relative to DMSO ([3]; 20 uM)	Burkin Assay in Myoblasts, value relative to DMSO ([3]; 40 uM)	CMV-LACZ in Myotubes, signal relative to DMSO [1, 4]	CMV-LACZ in Myotubes, signal relative to DMSO [1, 5]	CMV-LACZ in Myotubes, signal relative to DMSO [1, 6]	CMV-LACZ in Myotubes, signal relative to DMSO [1, 7]	also measured
O=Cc1cnc(N2CCCCC2)s1 [MLS000721730-01]	0.8504	0.9207	0.9311	1.031	0.9195	1.064	0.8563	1.025	0.877	1.071	0.8377	0.8197	0.8157	0.8824	0.827	0.9342	–	–	–	–	–
O=S(=O)(NCC(c1ccco1)N1CCOCC1)c1ccc(Cl)cc1 (stereo not shown) [MLS000724709-01]	0.8422	0.8828	1.054	1.125	0.9961	1.467	1.04	1.002	0.885	0.9768	0.9899	0.9554	0.7389	0.779	0.486	0.5536	–	–	–	–	–
CC(C)N(CCO)C(=O)CCc1nnc(CCCc2ccccc2)o1 [MLS000733703-01]	–	–	–	–	1.063	1.128	0.8779	1.147	0.9957	0.894	0.988	0.9592	0.8919	0.8734	0.8635	0.8463	1.1188	0.8654	0.9583	0.7965	–
CNc1cc([N+](=O)[O-])ccc1OCc1ccccc1 [MLS000737204-01]	–	–	–	–	–	–	–	–	–	–	–	–	–	–	–	–	1.029	0.8068	0.5772	0.3807	Burkin Assay in Myotubes, α7 integrin LacZ reporter signal relative to DMSO ([2]; 0.5 uM): 1.043; Burkin Assay in Myotubes, α7 integrin LacZ reporter signal relative to DMSO ([2]; 1 uM): 1.173; Burkin Assay in Myotubes, α7 integrin LacZ reporter signal relative to DMSO ([2]; 5 uM): 1.0331; Burkin Assay in Myotubes, α7 integrin LacZ reporter signal relative to DMSO ([2]; 10 uM): 1.12; Burkin Assay in Myotubes, α7 integrin LacZ reporter signal relative to DMSO ([2]; 20 uM): 0.8815; Burkin Assay in Myotubes, α7 integrin LacZ reporter signal relative to DMSO ([2]; 40 uM): 0.6682; Burkin Assay in Myoblasts, signal relative to DMSO ([3]; 0.5 uM): 0.9011; Burkin Assay in Myoblasts, signal relative to DMSO ([3]; 1 uM): 0.9816; Burkin Assay in Myoblasts, signal relative to DMSO ([3]; 5 uM): 0.9164; Burkin Assay in Myoblasts, signal relative to DMSO ([3]; 10 uM): 0.9336; Burkin Assay in Myoblasts, signal relative to DMSO ([3]; 20 uM): 0.8731; Burkin Assay in Myoblasts, signal relative to DMSO ([3]; 40 uM): 0.7472
CCCOc1nc(SCCC)nc2c1cnn2-c1ccccc1 [MLS000737953-01]	–	–	–	–	–	–	–	–	–	–	–	–	–	–	–	–	0.8274	1.224	0.9478	0.9096	Burkin Assay in Myotubes, α7 integrin LacZ reporter signal relative to DMSO ([2]; 0.5 uM): 0.9665; Burkin Assay in Myotubes, α7 integrin LacZ reporter signal relative to DMSO ([2]; 1 uM): 1.135; Burkin Assay in Myotubes, α7 integrin LacZ reporter signal relative to DMSO ([2]; 5 uM): 1.241; Burkin Assay in Myotubes, α7 integrin LacZ reporter signal relative to DMSO ([2]; 10 uM): 1.226; Burkin Assay in Myotubes, α7 integrin LacZ reporter signal relative to DMSO ([2]; 20 uM): 1.007; Burkin Assay in Myotubes, α7 integrin LacZ reporter signal relative to DMSO ([2]; 40 uM): 0.5339; Burkin Assay in Myoblasts, signal relative to DMSO ([3]; 0.5 uM): 0.9; Burkin Assay in Myoblasts, signal relative to DMSO ([3]; 1 uM): 0.9673; Burkin Assay in Myoblasts, signal relative to DMSO ([3]; 5 uM): 1.003; Burkin Assay in Myoblasts, signal relative to DMSO ([3]; 10 uM): 1.08; Burkin Assay in Myoblasts, signal relative to DMSO ([3]; 20 uM): 1.149; Burkin Assay in Myoblasts, signal relative to DMSO ([3]; 40 uM): 1.233
C[C@H](NS(=O)(=O)c1ccc(Cl)cc1)C(=O)OCC(=O)c1ccc[nH]1 [MLS000761297-01]	0.9911	0.8106	0.993	0.8829	1.0906	1.022	1.154	1.033	1.045	1.093	1.0693	1.071	1.121	1.055	1.072	0.9526	–	–	–	–	–
Nc1nccc(-c2ccc(-n3cnc4ccccc43)cc2)n1 [MLS000763405-01]	–	–	–	–	–	–	–	–	–	–	–	–	–	–	–	–	–	–	–	–	fold induction at 5 µM ([1]; Mus musculus, C2C12, read-out: CMV-LACZ in Myotubes, signal relative to DMSO, 5 uM, C2C12 CMV-LacZ myotubes, fold relative to DMSO): 1.05; fold induction at 10 µM ([1]; Mus musculus, C2C12, read-out: CMV-LACZ in Myotubes, signal relative to DMSO, 10 uM, C2C12 CMV-LacZ myotubes, fold relative to DMSO): 0.876; fold induction at 20 µM ([1]; Mus musculus, C2C12, read-out: CMV-LACZ in Myotubes, signal relative to DMSO, 20 uM, C2C12 CMV-LacZ myotubes, fold relative to DMSO): 0.824; fold induction at 40 µM ([1]; Mus musculus, C2C12, read-out: CMV-LACZ in Myotubes, signal relative to DMSO, 40 uM, C2C12 CMV-LacZ myotubes, fold relative to DMSO): 0.802; fold induction at 0.5 µM ([2]; Mus musculus, Myotube, 0.5 uM, read-out: Burkin Assay in Myotubes, α7 integrin LacZ reporter signal relative to DMSO): 1.03; fold induction at 1 µM ([2]; Mus musculus, Myotube, 1 uM, read-out: Burkin Assay in Myotubes, α7 integrin LacZ reporter signal relative to DMSO): 1.14; fold induction at 5 µM ([2]; Mus musculus, Myotube, 5 uM, read-out: Burkin Assay in Myotubes, α7 integrin LacZ reporter signal relative to DMSO): 1.21; fold induction at 10 µM ([2]; Mus musculus, Myotube, 10 uM, read-out: Burkin Assay in Myotubes, α7 integrin LacZ reporter signal relative to DMSO): 1.11; fold induction at 20 µM ([2]; Mus musculus, Myotube, 20 uM, read-out: Burkin Assay in Myotubes, α7 integrin LacZ reporter signal relative to DMSO): 1.45; fold induction at 40 µM ([2]; Mus musculus, Myotube, 40 uM, read-out: Burkin Assay in Myotubes, α7 integrin LacZ reporter signal relative to DMSO): 1.38; fold induction at 0.5 µM ([3]; Mus musculus, Myoblast, 48 h, 0.5 uM, read-out: Burkin Assay in Myoblasts, signal relative to DMSO): 0.961; fold induction at 1 µM ([3]; Mus musculus, Myoblast, 48 h, 1 uM, read-out: Burkin Assay in Myoblasts, signal relative to DMSO): 1.03; fold induction at 5 µM ([3]; Mus musculus, Myoblast, 48 h, 5 uM, read-out: Burkin Assay in Myoblasts, signal relative to DMSO): 1.46; fold induction at 10 µM ([3]; Mus musculus, Myoblast, 48 h, 10 uM, read-out: Burkin Assay in Myoblasts, signal relative to DMSO): 1.53; fold induction at 20 µM ([3]; Mus musculus, Myoblast, 48 h, 20 uM, read-out: Burkin Assay in Myoblasts, signal relative to DMSO): 1.47; fold induction at 40 µM ([3]; Mus musculus, Myoblast, 48 h, 40 uM, read-out: Burkin Assay in Myoblasts, signal relative to DMSO): 1.08
